# US20090176817A1, “Method of Treatment of Diarrhea-Predominant Irritable Bowel Syndrome in a Subject” (priority 2005, published 2009)
# Tested on: diarrhea-predominant IBS subjects
# Test: Study S241.3.006: weekly diary questions on adequate relief
# Format: in vivo, human
# Protocol: The study was conducted in 129 study centers in the United States. At total of 2080 subjects consented to participate, and 711 subjects were randomized. A total of 692 subjects were analyzed for efficacy and 701 subjects were analyzed for safety. Diagnosis and main criteria for inclusion were IBS subjects satisfying the Rome I criteria (1992); the diarrhea predominant sub-population of the Rome II criteria; and a minimum abdominal pain/discomfort, stool frequency and consistency determined during the run-in period. Subjects were treated with cilansetron 2 mg tablets given orally TID or matching placebo tablets given orally TID for 12 weeks double-blind treatment.
# The primary efficacy parameter was the number of months that a subject was a responder for IBS symptoms (abdominal pain, abdominal discomfort, abnormal bowel habits) over the 12-week treatment period. A responder for a month (monthly responder) was defined as a subject who answered the weekly question with “yes” at least twice for that month.
# Studies S24 1.3.OO6, S24 1.3.0 1 1, and S24 1.3.009 used the following efficacy measurements: • The subjects answered the following three questions with “yes” or “no” using a phone diary at the end of each week: • a) During the last week, did you experience adequate relief of your IBS symptoms, such as abdominal pain, abdominal discomfort, abnormal bowel habits? • b) During the last week, did you experience adequate relief of your abdominal pain and/or discomfort? • c) During the last week, did you experience adequate relief of your abnormal bowel habits? • The subjects rated the following symptoms using the phone diary at the end of each day: • abdominal pain/discomfort (five-point scale); • stool consistency (seven-point Bristol Stool Scale); • stool frequency (number of bowel movements each day); • urgency (five-point scale); • straining (yes or no); • feeling of incomplete defecation (yes or no); • bloating or feeling of abdominal distension (five-point scale). • In Studies S241 A006 and S241.3.009, subjects completed the IBS-QOL Survey at Baseline (Day 1) and at the end of treatment. In Study S24 1.3.0 1 1, subjects completed the IBS-QOL Survey at Baseline (Day 1), at the end of the three-month treatment period, and at the end of rerandomized treatment.
# In all three pivotal efficacy studies, the primary and main secondary efficacy parameters were based on the weekly diary questions on adequate relief and included the following: • 1. Number of months (one month equals four weeks) that a subject was a responder for the weekly diary questions on adequate relief. A responder for a month (monthly responder) was defined as a subject who answered the weekly question with “yes” at least twice for that month. For Studies S241.3.006 and S241.3.011, the primary efficacy parameter was the number of months that a subject was a responder for IBS symptoms during the 12-week treatment period. The two main secondary efficacy parameters were the number of months that a subject was a responder for abdominal pain/discomfort and abnormal bowel habits during the 12-week treatment period. For Study S241.3.009, the number of months that a subject was a responder for the weekly diary questions on adequate relief during Months 1 to 3 (the first 12 weeks) and Months 1 to 6 (24-week) was an additional key secondary efficacy parameter. • 2. Overall responder rate for the weekly diary questions on adequate relief. A responder was defined as a subject who answered the weekly question with “yes” for at least half of the answers available with a minimum of four weeks treatment duration. If a subject had less than four weeks treatment duration, the subject was considered a non-responder. The overall responder rate was the percentage of responders within a treatment group. For Study S241.3.009, the primary efficacy parameter was the overall responder rate for IBS symptoms during the 26-week treatment period. […]
# [1] = 2 mg TID, monthly LOCF, ITT N = 344
# [2] = 2 mg TID, three-month treatment period, monthly LOCF, ITT N = 344
# [3] = 2 mg TID, three-month treatment period, observed case, ITT N = 344
# [4] = Baseline BMI: <30 kg/m^2, three-month treatment period, monthly LOCF, ITT, 2 mg TID
# [5] = Baseline BMI: ≧30 kg/m^2, three-month treatment period, monthly LOCF, ITT, 2 mg TID
# [6] = Baseline severity of IBS: non-severe, three-month treatment period, monthly LOCF, ITT, 2 mg TID
# [7] = Baseline severity of IBS: non-severe, three-month treatment period, observed case, ITT, 2 mg TID
# [8] = Baseline severity of IBS: severe, three-month treatment period, monthly LOCF, ITT, 2 mg TID
# [9] = Baseline severity of IBS: severe, three-month treatment period, observed case, ITT, 2 mg TID
smiles,measurement,setting,value
"Cc1nccn1C[C@H]1CCc2c(c3cccc4c3n2CCC4)C1=O [Cilansetron, (R)-(−)-4,5,6,8,9,10-hexahydro-10-[(2-methyl-1H-imidazol-1-yl)methyl]-11H-pyrido-[3,2,1-jk]-carbazol-11-one]","Responders for one month, IBS symptoms","2 mg TID, 3 months",13%
same,"Responders for one month, abdominal pain/discomfort","2 mg TID, 3 months",12%
same,"Responders for one month, abnormal bowel habits","2 mg TID, 3 months",12%
same,"Responders for three months, IBS symptoms","2 mg TID, 3 months",35%
same,"Responders for three months, abdominal pain/discomfort","2 mg TID, 3 months",40%
same,"Responders for three months, abnormal bowel habits","2 mg TID, 3 months",38%
same,"Responders for two months, IBS symptoms","2 mg TID, 3 months",15%
same,"Responders for two months, abdominal pain/discomfort","2 mg TID, 3 months",14%
same,"Responders for two months, abnormal bowel habits","2 mg TID, 3 months",15%
same,"Responders for zero months, IBS symptoms","2 mg TID, 3 months",37%
same,"Responders for zero months, abdominal pain/discomfort","2 mg TID, 3 months",34%
same,"Responders for zero months, abnormal bowel habits","2 mg TID, 3 months",36%
same,"Responder rate, adequate relief of IBS symptoms, Each month of Months 1 to 3",[1],119 (35) n (%)
same,"Responder rate, adequate relief of IBS symptoms, Month 1",[1],176 (51) n (%)
same,"Responder rate, adequate relief of IBS symptoms, Month 2",[1],163 (47) n (%)
same,"Responder rate, adequate relief of IBS symptoms, Month 3",[1],169 (49) n (%)
same,"Responder rate, adequate relief of abdominal pain/discomfort, Each month of Months 1 to 3",[1],139 (40) n (%)
same,"Responder rate, adequate relief of abdominal pain/discomfort, Month 1",[1],192 (56) n (%)
same,"Responder rate, adequate relief of abdominal pain/discomfort, Month 2",[1],178 (52) n (%)
same,"Responder rate, adequate relief of abdominal pain/discomfort, Month 3",[1],183 (53) n (%)
same,"Responder rate, adequate relief of abnormal bowel habits, Each month of Months 1 to 3",[1],129 (38) n (%)
same,"Responder rate, adequate relief of abnormal bowel habits, Month 1",[1],180 (52) n (%)
same,"Responder rate, adequate relief of abnormal bowel habits, Month 2",[1],178 (52) n (%)
same,"Responder rate, adequate relief of abnormal bowel habits, Month 3",[1],173 (50) n (%)
same,"Subjects who were responders for One month, adequate relief of IBS symptoms",[2],45 (13) n (%)
same,"Subjects who were responders for One month, adequate relief of abdominal pain/discomfort",[2],42 (12) n (%)
same,"Subjects who were responders for One month, adequate relief of abnormal bowel habits",[2],40 (12) n (%)
same,"Subjects who were responders for Three months, adequate relief of IBS symptoms",[2],119 (35) n (%)
same,"Subjects who were responders for Three months, adequate relief of abdominal pain/discomfort",[2],139 (40) n (%)
same,"Subjects who were responders for Three months, adequate relief of abnormal bowel habits",[2],129 (38) n (%)
same,"Subjects who were responders for Two months, adequate relief of IBS symptoms",[2],53 (15) n (%)
same,"Subjects who were responders for Two months, adequate relief of abdominal pain/discomfort",[2],47 (14) n (%)
same,"Subjects who were responders for Two months, adequate relief of abnormal bowel habits",[2],52 (15) n (%)
same,"Subjects who were responders for Zero months, adequate relief of IBS symptoms",[2],127 (37) n (%)
same,"Subjects who were responders for Zero months, adequate relief of abdominal pain/discomfort",[2],116 (34) n (%)
same,"Subjects who were responders for Zero months, adequate relief of abnormal bowel habits",[2],123 (36) n (%)
same,"Overall responder rate, adequate relief of IBS symptoms",[3],168 (49) n (%)
same,"Overall responder rate, adequate relief of abdominal pain/discomfort",[3],179 (52) n (%)
same,"Overall responder rate, adequate relief of abnormal bowel habits",[3],174 (51) n (%)
same,"Median adequate relief rate, IBS symptoms",3 months,0.50
same,"Median adequate relief rate, abdominal pain/discomfort",3 months,0.58
same,"Median adequate relief rate, abnormal bowel habits",3 months,0.50
same,"Overall responder rate, IBS symptoms","3 months, observed case, ITT",49%
same,"Overall responder rate, abdominal pain/discomfort","3 months, observed case, ITT",52%
same,"Overall responder rate, abnormal bowel habits","3 months, observed case, ITT",51%
same,Number of months a subject was a responder: One month (Abdominal pain/discomfort),[4],26 (11) n (%)
same,Number of months a subject was a responder: One month (Abnormal bowel habits),[4],27 (12) n (%)
same,Number of months a subject was a responder: One month (IBS symptoms),[4],29 (13) n (%)
same,Number of months a subject was a responder: Three months (Abdominal pain/discomfort),[4],96 (42) n (%)
same,Number of months a subject was a responder: Three months (Abnormal bowel habits),[4],83 (36) n (%)
same,Number of months a subject was a responder: Three months (IBS symptoms),[4],80 (35) n (%)
same,Number of months a subject was a responder: Two months (Abdominal pain/discomfort),[4],29 (13) n (%)
same,Number of months a subject was a responder: Two months (Abnormal bowel habits),[4],37 (16) n (%)
same,Number of months a subject was a responder: Two months (IBS symptoms),[4],35 (15) n (%)
same,Number of months a subject was a responder: Zero months (Abdominal pain/discomfort),[4],79 (34) n (%)
same,Number of months a subject was a responder: Zero months (Abnormal bowel habits),[4],83 (36) n (%)
same,Number of months a subject was a responder: Zero months (IBS symptoms),[4],86 (37) n (%)
same,Number of months a subject was a responder: One month (Abdominal pain/discomfort),[5],16 (14) n (%)
same,Number of months a subject was a responder: One month (Abnormal bowel habits),[5],13 (11) n (%)
same,Number of months a subject was a responder: One month (IBS symptoms),[5],16 (14) n (%)
same,Number of months a subject was a responder: Three months (Abdominal pain/discomfort),[5],43 (38) n (%)
same,Number of months a subject was a responder: Three months (Abnormal bowel habits),[5],46 (40) n (%)
same,Number of months a subject was a responder: Three months (IBS symptoms),[5],39 (34) n (%)
same,Number of months a subject was a responder: Two months (Abdominal pain/discomfort),[5],18 (16) n (%)
same,Number of months a subject was a responder: Two months (Abnormal bowel habits),[5],15 (13) n (%)
same,Number of months a subject was a responder: Two months (IBS symptoms),[5],18 (16) n (%)
same,Number of months a subject was a responder: Zero months (Abdominal pain/discomfort),[5],37 (32) n (%)
same,Number of months a subject was a responder: Zero months (Abnormal bowel habits),[5],40 (35) n (%)
same,Number of months a subject was a responder: Zero months (IBS symptoms),[5],41 (36) n (%)
same,Number of months a subject was a responder: One month (Abdominal pain/discomfort),[6],9 (6) n (%)
same,Number of months a subject was a responder: One month (Abnormal bowel habits),[6],16 (11) n (%)
same,Number of months a subject was a responder: One month (IBS symptoms),[6],18 (12) n (%)
same,Number of months a subject was a responder: Three months (Abdominal pain/discomfort),[6],72 (49) n (%)
same,Number of months a subject was a responder: Three months (Abnormal bowel habits),[6],68 (46) n (%)
same,Number of months a subject was a responder: Three months (IBS symptoms),[6],60 (41) n (%)
same,Number of months a subject was a responder: Two months (Abdominal pain/discomfort),[6],25 (17) n (%)
same,Number of months a subject was a responder: Two months (Abnormal bowel habits),[6],22 (15) n (%)
same,Number of months a subject was a responder: Two months (IBS symptoms),[6],24 (16) n (%)
same,Number of months a subject was a responder: Zero months (Abdominal pain/discomfort),[6],42 (28) n (%)
same,Number of months a subject was a responder: Zero months (Abnormal bowel habits),[6],42 (28) n (%)
same,Number of months a subject was a responder: Zero months (IBS symptoms),[6],46 (31) n (%)
same,"Overall responder rate, adequate relief of IBS symptoms",[7],81 (55) n (%)
same,"Overall responder rate, adequate relief of abdominal pain/discomfort",[7],89 (60) n (%)
same,"Overall responder rate, adequate relief of abnormal bowel habits",[7],84 (57) n (%)
same,Number of months a subject was a responder: One month (Abdominal pain/discomfort),[8],33 (17) n (%)
same,Number of months a subject was a responder: One month (Abnormal bowel habits),[8],24 (12) n (%)
same,Number of months a subject was a responder: One month (IBS symptoms),[8],27 (14) n (%)
same,Number of months a subject was a responder: Three months (Abdominal pain/discomfort),[8],67 (34) n (%)
same,Number of months a subject was a responder: Three months (Abnormal bowel habits),[8],61 (31) n (%)
same,Number of months a subject was a responder: Three months (IBS symptoms),[8],59 (30) n (%)
same,Number of months a subject was a responder: Two months (Abdominal pain/discomfort),[8],22 (11) n (%)
same,Number of months a subject was a responder: Two months (Abnormal bowel habits),[8],30 (15) n (%)
same,Number of months a subject was a responder: Two months (IBS symptoms),[8],29 (15) n (%)
same,Number of months a subject was a responder: Zero months (Abdominal pain/discomfort),[8],74 (38) n (%)
same,Number of months a subject was a responder: Zero months (Abnormal bowel habits),[8],81 (41) n (%)
same,Number of months a subject was a responder: Zero months (IBS symptoms),[8],81 (41) n (%)
same,"Overall responder rate, adequate relief of IBS symptoms",[9],87 (44) n (%)
same,"Overall responder rate, adequate relief of abdominal pain/discomfort",[9],90 (46) n (%)
